For data set [1] the following is noted: cited from earlier work; for half-life: shelf life stability, order of magnitude.
For data set [2], the system named is SRB or APB populations. As to the kind of experiment: Micro efficacy of field-generated PFA at a salt water disposal well (serial dilution bug bottles). The settings on record: for log reduction in microbial population: compared to incoming water, serial dilution bug bottles selecting for SRB or APB. The class given is cell-based. The protocol:
The peroxyformic acid generator according to the embodiments depicted in the figures having multiple inlets to provide formic acid blend (formic acid, catalyst and corrosion inhibitor) as well as hydrogen peroxide was evaluated under field conditions at a scale-up volume. The generator was used at a salt water disposal well.
The performance of the chemistry generated in the field according to Example 5 was evaluated for micro efficacy. PFA dosed at 250 ppm (˜25 ppm active) indicates at least reduction in microbial numbers equivalent to 2-3 logs, as shown in FIG. 13. In the figures the GB refers to site of treatment (gun barrel) measurement, whereas SWD refers to the disposal water measurement for micro efficacy.
The percentage reduction of microbial numbers compared to incoming water was also evaluated. Microbial numbers were monitored using traditional serial dilution bug bottles that select for SRB or APB populations.

The text below walks through data of US12268210B2, “Performic acid on-site generator and formulator” (ECOLAB USA INC., priority 2015, dated 2025).

Regarding performic acid [PFA], the “time to decompose into carbon dioxide and water” value in data set [1] (ambient temperature and pressure) was “within a few hours”. The half-life entry in data set [1] is recorded as “minutes to hours”. For the same compound, in data set [2] (PFA dosed at 250 ppm (~25 ppm active), GB (gun barrel) and SWD (disposal water) measurements, FIG. 13), the “reduction in microbial numbers” value is 2-3 logs. Moreover, the “log reduction in microbial population” value was 2-3 log in data set [2] (all results) and 7 log in data set [2] (in some case).

Consider `CC(=O)OO` [peracetic acid, reference compound], for which the half-life entry in data set [1] is “weeks to months”.
